Patent US6887902B2, “Anti-inflammatory method using gamma-aminobutyric acid (GABA) analogs” (Warner-Lambert Company, priority 1997, dated 2005)

Assays:
[1] = test system: kaolin and carrageenan knee joint arthritis; assay: acute experimental arthritis by kaolin and carrageenan in the knee joint, spinal infusion of pregabalin or its R-isomer; settings: for PWL (thermal paw withdrawal latency) compared to baseline: 10 mg/mL infused into dorsal horn alone, before induction of arthritis; for thermal hyperalgesia (PWL) at 5.5 hours: 0.9 mg/mL infused into dorsal horn after development of arthritis; for PWL after infusion: 10 mg/mL infused after inflammation of the knee joint; for spontaneous pain (paw posture): both doses (0.9 and 10 mg/mL); for secondary thermal hyperalgesia (PWL) / abnormal paw posture indicative of spontaneous pain / reduction of knee joint swelling compared to aCSF rats: pre-treatment; for secondary thermal hyperalgesia (PWL): 10 mg/mL spinal infusion for 1.5 hours before kaolin and carrageenan, 4 hours post-injection; for abnormal paw posture indicative of spontaneous pain: spinal infusion before induction of arthritis; for reduction of knee joint swelling compared to aCSF rats: spinal infusion for 1.5 hours before induction of arthritis, P<0.05
Experimental: Acute experimental arthritis was induced in rats by injection of kaolin and carrageenan into the knee joint. […] Concomitant with the injury to the joint tissue, both peripheral and central sensitization occurs, which is manifested in the awake rat as hyperalgesia, which can be easily quantified by measuring a reduction in paw withdrawal latencies to a radiant heat source. Both pregabalin and its R-stereoisomer (R-(−)-3-IBG) were administered before inflammation was induced, and after the inflammation was developed.
Thirty-six male Sprague-Dawley rats (235-380 g) were anesthetized with sodium pentobarbital (Nembutal; 50 mg/kg^−1 i.p.). A microdialysis fiber (200 μm o.d., 45000 MW Cut-off, Hospal AN69) was coated with epoxy resin, except for a 2 mm section. A small midline incision was made in the back at the level of the last rib. The muscle was then removed from around the T12 vertebra and a hole drilled in both lateral aspects. The microdialysis fiber was then passed transversely through the dorsal horn of the spinal cord between lumbar segments L4-L6 so that the permeable 2 mm of the fiber lay in the dorsal horn. The microdialysis fiber was connected to PE20 tubing (Becton and Dickson) which was then tunneled under the skin to the nape of the neck. The fiber was stabilized with dental cement. Artificial cerebrospinal fluid (aCSF) was pumped through the tubing at a rate of 5 μL/min for 1 hour before the PE20 was sealed and the animals allowed to recover.
As a measure of thermal hyperalgesia, animals were tested for paw withdrawal to radiant heat. On the day following fiber placement, animals were housed in small lucite cubicles on an elevated glass plate. Radiant heat was applied to the plantar surface of the heel of the hindpaw until the rat lifted the paw. The time at which this occurred was considered the paw withdrawal latency (PWL). Both paws were tested independently at 5-minute intervals, for a total of 5 trials. A mean of these five readings was used as the PWL. […] PWL was measured for a final time 4 hours after arthritis induction. In the post-treatment group, the animals were tested before induction of arthritis in the knee joint (control), 4-hours post-induction, and 1.5 hours after of drug infusion, i.e. 5.5 hours after arthritis induction. A decrease in the PWL to radiant heat in an animal with knee joint inflammation is indicative of secondary hyperalgesia.
The circumference of the knee joint was also measured before injection of kaolin and carrageenan (control) using a flexible tape measure. The extent of guarding of the hindpaw was also noted after arthritis was induced. To quantify these changes, the animals were graded by a subjective pain rating scale (0-5), where: 0 is normal; 1 is curling of the toes; 2 is eversion of the paw; 3 is partial weight bearing; 4 is non-weight bearing and guarding; and 5 is avoidance of any contact with the hindlimb.
Rats were anesthetized briefly with sodium methohexital (Brevital; 60 mg/kg^−1 i.p.) after the control behavioral test (post-treatment group) or after infusion of the drug (pre-treatment group). The knee joint was then injected with 3% kaolin and 3% carrageenan suspended in sterile saline (0.1 mL; pH 7.4). The knee joint was then flexed manually until the rat awoke (approximately 5 minutes).
All GABA analogs were dissolved in an artificial cerebral spinal fluid solution (aCSF) (pH 7.4, adjusted by bubbling with 95% CO2/5% O2) and infused through the spinal cord at 5 μL/min^−1. The animals received either pregabalin, R-(−)-3-IBG, or aCSF.

[2] = test system: SCW (PG-PS) induced reactivation arthritis, ankle swelling; assay: streptococcal cell wall (SCW) induced reactivation arthritis assay; format: in vivo, Female Lewis rats
Experimental: The assay is a streptococcal cell wall (SCW) induced reactivation arthritis assay. Female Lewis rats were injected intra-articularly with 10 μL of 100 p fraction peptidoglyean polysaccharide (PG-PS) suspended in phosphate buffered saline (PBS). The contralateral joints were injected with PBS as control. Systemic challenge with 100 μg of PG-PS was given via the tail vein 21 days after the initial inoculation. The animals were dosed orally three times a day with pregabalin (3, 10, and 30 mg/kg) on a 12-hour cycle for 72 hours. The first dose was given 1 hour before the systemic challenge.
The volume of the ankles increased by about 0.5 mL within 72 hours. Pregabalin at 10 and 30 mg/kg dose dependently attenuated the increase in edema up to 40% during the 72-hour observation period.

CC(C)C[C@H](CN)CC(=O)O [Pregabalin, (S)-3-(aminomethyl)-5-methylhexanoic acid]
PWL (thermal paw withdrawal latency) compared to baseline [1]: did not change PWL | thermal hyperalgesia (PWL) at 5.5 hours ([1]; post-treatment): reduced the thermal hyperalgesia | PWL after infusion ([1]; post-treatment): return of the PWL to the control value | spontaneous pain (paw posture) ([1]; post-treatment): spontaneous pain was also reduced | comparison of the isomers in reducing thermal hyperalgesia ([1]; post-treatment, spinal infusion): more effective in reducing thermal hyperalgesia than its R-isomer | secondary thermal hyperalgesia (PWL) [1]: no secondary thermal hyperalgesia was observed | abnormal paw posture indicative of spontaneous pain [1]: prevented the development of abnormal paw posture | reduction of knee joint swelling compared to aCSF rats [1]: approximately 30% | attenuation of the increase in edema ([2]; 10 and 30 mg/kg oral, dose dependent, 72-hour observation period): up to 40% | Swelling (delta edema, mL) ([2]; Day 22, pregabalin oral 3.0 mg/kg, vehicle group 0.20): 0.12 mL | Swelling (delta edema, mL) ([2]; Day 22, pregabalin oral 10.0 mg/kg, vehicle group 0.20): 0.04 mL | Swelling (delta edema, mL) ([2]; Day 22, pregabalin oral 30.0 mg/kg, vehicle group 0.20): 0.06 mL | Swelling (delta edema, mL) ([2]; Day 23, pregabalin oral 3.0 mg/kg, vehicle group 0.45): 0.38 mL | Swelling (delta edema, mL) ([2]; Day 23, pregabalin oral 10.0 mg/kg, vehicle group 0.45): 0.25 mL | Swelling (delta edema, mL) ([2]; Day 23, pregabalin oral 30.0 mg/kg, vehicle group 0.45): 0.20 mL | Swelling (delta edema, mL) ([2]; Day 24, pregabalin oral 3.0 mg/kg, vehicle group 0.50): 0.50 mL | Swelling (delta edema, mL) ([2]; Day 24, pregabalin oral 10.0 mg/kg, vehicle group 0.50): 0.31 mL | Swelling (delta edema, mL) ([2]; Day 24, pregabalin oral 30.0 mg/kg, vehicle group 0.50): 0.21 mL

CC(C)C[C@@H](CN)CC(=O)O [R-(−)-3-IBG]
PWL (thermal paw withdrawal latency) compared to baseline [1]: did not change PWL | thermal hyperalgesia (PWL) at 5.5 hours ([1]; post-treatment): reduced the thermal hyperalgesia | PWL after infusion ([1]; post-treatment): return of the PWL to the control value | spontaneous pain (paw posture) ([1]; post-treatment): spontaneous pain was also reduced | secondary thermal hyperalgesia (PWL) [1]: no secondary thermal hyperalgesia was observed | abnormal paw posture indicative of spontaneous pain [1]: prevented the development of abnormal paw posture | reduction of knee joint swelling compared to aCSF rats [1]: approximately 30%
